One assay addresses T1, human CCR-2 (Homo sapiens, UniProt P41597).
T1 sequence (P41597 1-360 isoform P41597-2): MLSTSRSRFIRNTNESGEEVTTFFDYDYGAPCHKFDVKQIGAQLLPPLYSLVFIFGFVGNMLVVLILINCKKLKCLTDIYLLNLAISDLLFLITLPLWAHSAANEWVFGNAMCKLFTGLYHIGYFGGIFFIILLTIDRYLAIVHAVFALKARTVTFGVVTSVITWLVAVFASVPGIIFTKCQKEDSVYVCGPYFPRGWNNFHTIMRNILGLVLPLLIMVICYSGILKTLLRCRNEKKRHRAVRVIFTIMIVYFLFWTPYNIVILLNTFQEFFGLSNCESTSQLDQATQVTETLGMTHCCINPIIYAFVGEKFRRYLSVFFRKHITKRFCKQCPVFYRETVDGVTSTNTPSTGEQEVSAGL
The experiment in a line: CCR-2 chemotaxis, MCP-1-induced, THP-1 cells. The format is cell-based. As to the method:
The human CCR-2 chemotaxis assay was conducted with the human monocytic cell line, THP-1. THP-1 cells were first labeled with the fluorescent dye Calcein-AM in phenol red-free, BSA-free RPMI-1640 (pH 7.4) at 37° C. for 30 minutes with gentle mixing every 15 minutes. The labeled cells were then washed and re-suspended at 1×10^5/ml in chemotaxis buffer (phenol red-free RPMI-1640, 0.1% BSA, pH 7.4). The test compound was diluted in chemotaxis buffer such that the final assay concentration ranged from 0.01 nM to 1 μM. The ligand MCP-1 (PeproTech Inc.) was diluted to 20 nM in chemotaxis buffer. To perform the assay, an equal volume of test compound dilutions was mixed with an equal volume of labeled THP-1 cells (Mixture 1), and an equal volume of test compound dilutions was mixed with an equal volume of diluted MCP-1 ligand (Mixture 2). Both mixtures were incubated independently at 37° C. for 10 minutes followed by gentle mixing. MCP-1-induced chemotaxis was then measured in a chemotaxis plate (Becton Dickinson) by placing 50 μl of Mixture 1 in the top chamber and 225 μl of Mixture 2 in the bottom chamber. The plate was covered with a lid and incubated at 37° C. for 30 minutes. 30 minutes later, the plate was read on a CYTOFLUOR®. All conditions were tested in duplicate. […]

The target of a further assay is T2, CCR-5 (Homo sapiens, UniProt P51681).
T2 construct: human peripheral T cells was used as a source of CCR-5; endogenous in cells; host or cells: human peripheral T cells from donors pre-screened for high CCR-5 expression
The experiment in a line: CCR-5 calcium mobilization, HT1080/CCR-5 cells. The settings on record: MIP-1β 50 nM, read-out: CCR-5 ^2+ Flux IC50. In kind it is cell-based. (Calcium assays in cells follow changes in intracellular calcium, usually with a dye or a luminescent sensor.)

This note sets out measurements from patent US8618101B2, “N-((1R,2S,5R)-5-(tert-butylamino)-2-((S)-3-(7-tert-butylpyrazolo[1,5-a][1,3,5]triazin-4-ylamino)-2-oxopyrrolidin-1-yl)cyclohexyl)acetamide, a dual modulator of chemokine receptor activity, crystalline forms and processes” (Bristol-Myers Squibb Company, priority 2009, dated 2013).

T2 sequence (P51681 whole entry): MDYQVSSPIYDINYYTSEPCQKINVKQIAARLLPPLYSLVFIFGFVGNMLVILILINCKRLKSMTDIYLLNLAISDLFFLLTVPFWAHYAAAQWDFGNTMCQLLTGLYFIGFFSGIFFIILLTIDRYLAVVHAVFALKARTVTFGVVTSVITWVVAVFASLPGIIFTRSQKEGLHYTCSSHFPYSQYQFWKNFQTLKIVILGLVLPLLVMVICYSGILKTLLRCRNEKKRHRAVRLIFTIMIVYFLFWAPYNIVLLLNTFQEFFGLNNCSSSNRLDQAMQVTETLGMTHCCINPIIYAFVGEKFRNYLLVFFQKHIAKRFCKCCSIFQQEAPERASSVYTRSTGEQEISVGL

With `CC(=O)N[C@@H]1C[C@H](NC(C)(C)C)CC[C@@H]1N1CC[C@H](Nc2ncnc3cc(C(C)(C)C)nn23)C1=O` [Example 1, N-((1R,2 S,5R)-5-(tert-Butylamino)-2-((S)-3-(7-tert-butylpyrazolo[1,5-a][1,3,5]triazin-4-ylamino)-2-oxopyrrolidin-1-yl)cyclohexyl)acetamide], the 50% inhibitory concentration (IC50) at human CCR-2 stood at 0.8 ± 0.8 nM; at CCR-5 it was 2 ± 1.4 nM.

One may read the IC50 as the concentration that gives 50% inhibition.
